Data: PubChem BioAssay AID1918998 (Molecular Pharmacology Branch, DTP, NCI, 2023)

Tested on: 521955-158-R2-J5-PDC complex spheroid growth
Test: Anticancer human tumor 521955-158-R2-J5-PDC patient-derived pancreatic carcinoma cell line growth inhibition [AhR]
Conditions: for IC50: curve of first compound; for viability, T/C: stronger effect = lower value
Summary of the method: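 Complex tumor spheroids co-cultured with HUVEC and human MSC stroma; AhR antagonists tested in combination with standard-of-care and investigational agents. Top concentration at or near clinical Cmax (else 10 microM), half-log dilutions; growth expressed as percent test/control.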

[1] = second compound 0.1 µM, first compound 0.0316 µM
[2] = second compound 0.1 µM, first compound 0.1 µM
[3] = second compound 0.1 µM, first compound 0.316 µM
[4] = second compound 0.1 µM, first compound 1 µM
[5] = second compound 0.1 µM, first compound 3.16 µM
[6] = second compound 0.1 µM, first compound 10 µM
[7] = second compound 0.316 µM, first compound 0.0316 µM
[8] = second compound 0.316 µM, first compound 0.1 µM
[9] = second compound 0.316 µM, first compound 0.316 µM
[10] = second compound 0.316 µM, first compound 1 µM
[11] = second compound 0.316 µM, first compound 3.16 µM
[12] = second compound 0.316 µM, first compound 10 µM
[13] = second compound 1 µM, first compound 0.0316 µM
[14] = second compound 1 µM, first compound 0.1 µM
[15] = second compound 1 µM, first compound 0.316 µM
[16] = second compound 1 µM, first compound 1 µM
[17] = second compound 1 µM, first compound 3.16 µM
[18] = second compound 1 µM, first compound 10 µM
[19] = second compound 3.16 µM, first compound 0.0316 µM
[20] = second compound 3.16 µM, first compound 0.1 µM
[21] = second compound 3.16 µM, first compound 0.316 µM
[22] = second compound 3.16 µM, first compound 1 µM
[23] = second compound 3.16 µM, first compound 3.16 µM
[24] = second compound 3.16 µM, first compound 10 µM
[25] = second compound 10 µM, first compound 0.0316 µM
[26] = second compound 10 µM, first compound 0.1 µM
[27] = second compound 10 µM, first compound 0.316 µM
[28] = second compound 10 µM, first compound 1 µM
[29] = second compound 10 µM, first compound 3.16 µM
[30] = second compound 10 µM, first compound 10 µM
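Throughout, for viability, T/C: spheroids mix tumor cells with HUVEC endothelium and human MSC stroma; luminescence taken as viability surrogate after a week of drug exposure.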

SMILES: COc1cc(Nc2ncc3c(n2)-c2ccc(Cl)cc2C(c2c(F)cccc2OC)=NC3)ccc1C(=O)O + Cc1cncc(-c2nc(NCCc3c[nH]c4ccccc34)c3ncn(C(C)C)c3n2)c1
- IC50 (second compound 0.1 µM): > 10000 nM
- IC50 (second compound 0.316 µM): > 10000 nM
- IC50 (second compound 1 µM): > 10000 nM
- IC50 (second compound 3.16 µM): > 10000 nM
- IC50 (second compound 10 µM): > 10000 nM
- viability, T/C [1]: 100%
- viability, T/C [2]: 78.8%
- viability, T/C [3]: 78.8%
- viability, T/C [4]: 72.3%
- viability, T/C [5]: 80.1%
- viability, T/C [6]: 74.2%
- viability, T/C [7]: 99.7%
- viability, T/C [8]: 79.9%
- viability, T/C [9]: 87.1%
- viability, T/C [10]: 73.1%
- viability, T/C [11]: 68%
- viability, T/C [12]: 60.9%
- viability, T/C [13]: 109%
- viability, T/C [14]: 88.5%
- viability, T/C [15]: 103%
- viability, T/C [16]: 83.2%
- viability, T/C [17]: 70.7%
- viability, T/C [18]: 70.4%
- viability, T/C [19]: 127%
- viability, T/C [20]: 107%
- viability, T/C [21]: 97.5%
- viability, T/C [22]: 90.8%
- viability, T/C [23]: 83%
- viability, T/C [24]: 76.7%
- viability, T/C [25]: 125%
- viability, T/C [26]: 88.4%
- viability, T/C [27]: 76.2%
- viability, T/C [28]: 84.3%
- viability, T/C [29]: 62.8%
- viability, T/C [30]: 81.3%

SMILES: Cn1ncnc1C1c2n[nH]c(=O)c3cc(F)cc(c23)NC1c1ccc(F)cc1 (stereo not given) + Cc1cncc(-c2nc(NCCc3c[nH]c4ccccc34)c3ncn(C(C)C)c3n2)c1
- IC50 (second compound 0.1 µM): > 100 nM
- IC50 (second compound 0.316 µM): > 100 nM
- IC50 (second compound 1 µM): > 100 nM
- IC50 (second compound 3.16 µM): > 100 nM
- IC50 (second compound 10 µM): > 100 nM
- viability, T/C (second compound 0.1 µM, first compound 0.000316 µM): 114%
- viability, T/C (second compound 0.1 µM, first compound 0.001 µM): 106%
- viability, T/C (second compound 0.1 µM, first compound 0.00316 µM): 94.6%
- viability, T/C (second compound 0.1 µM, first compound 0.01 µM): 109%
- viability, T/C [1]: 93%
- viability, T/C [2]: 83%
- viability, T/C (second compound 0.316 µM, first compound 0.000316 µM): 105%
- viability, T/C (second compound 0.316 µM, first compound 0.001 µM): 121%
- viability, T/C (second compound 0.316 µM, first compound 0.00316 µM): 93.3%
- viability, T/C (second compound 0.316 µM, first compound 0.01 µM): 110%
- viability, T/C [7]: 87.6%
- viability, T/C [8]: 101%
- viability, T/C (second compound 1 µM, first compound 0.000316 µM): 122%
- viability, T/C (second compound 1 µM, first compound 0.001 µM): 117%
- viability, T/C (second compound 1 µM, first compound 0.00316 µM): 116%
- viability, T/C (second compound 1 µM, first compound 0.01 µM): 127%
- viability, T/C [13]: 116%
- viability, T/C [14]: 99.5%
- viability, T/C (second compound 3.16 µM, first compound 0.000316 µM): 114%
- viability, T/C (second compound 3.16 µM, first compound 0.001 µM): 142%
- viability, T/C (second compound 3.16 µM, first compound 0.00316 µM): 115%
- viability, T/C (second compound 3.16 µM, first compound 0.01 µM): 119%
- viability, T/C [19]: 122%
- viability, T/C [20]: 107%
- viability, T/C (second compound 10 µM, first compound 0.000316 µM): 134%
- viability, T/C (second compound 10 µM, first compound 0.001 µM): 143%
- viability, T/C (second compound 10 µM, first compound 0.00316 µM): 106%
- viability, T/C (second compound 10 µM, first compound 0.01 µM): 105%
- viability, T/C [25]: 111%
- viability, T/C [26]: 104%

SMILES: NS(=O)(=O)OCC1CC(n2ccc3c(NC4CCc5ccccc54)ncnc32)CC1O (stereo not given) + Cc1cncc(-c2nc(NCCc3c[nH]c4ccccc34)c3ncn(C(C)C)c3n2)c1
- IC50 (second compound 0.1 µM): 968 nM
- IC50 (second compound 0.316 µM): 1170 nM
- IC50 (second compound 1 µM): 1250 nM
- IC50 (second compound 3.16 µM): 1240 nM
- IC50 (second compound 10 µM): 68.3 nM
- viability, T/C [1]: 106%
- viability, T/C [2]: 103%
- viability, T/C [3]: 80.1%
- viability, T/C [4]: 47.9%
- viability, T/C [5]: 40.1%
- viability, T/C [6]: 30.1%
- viability, T/C [7]: 105%
- viability, T/C [8]: 102%
- viability, T/C [9]: 78.5%
- viability, T/C [10]: 53.4%
- viability, T/C [11]: 35.6%
- viability, T/C [12]: 30.4%
- viability, T/C [13]: 115%
- viability, T/C [14]: 105%
- viability, T/C [15]: 83.7%
- viability, T/C [16]: 52.1%
- viability, T/C [17]: 38%
- viability, T/C [18]: 32.1%
- viability, T/C [19]: 99.4%
- viability, T/C [20]: 102%
- viability, T/C [21]: 75.2%
- viability, T/C [22]: 52.6%
- viability, T/C [23]: 45%
- viability, T/C [24]: 35.2%
- viability, T/C [25]: 65.5%
- viability, T/C [26]: 40.6%
- viability, T/C [27]: 34.4%
- viability, T/C [28]: 32.7%
- viability, T/C [29]: 28.7%
- viability, T/C [30]: 23.9%

SMILES: O=C(C=Cc1cccc(S(=O)(=O)Nc2ccccc2)c1)NO + Cc1cncc(-c2nc(NCCc3c[nH]c4ccccc34)c3ncn(C(C)C)c3n2)c1
- IC50 (second compound 0.1 µM): 5890 nM
- IC50 (second compound 0.316 µM): 6860 nM
- IC50 (second compound 1 µM): > 10000 nM
- IC50 (second compound 3.16 µM): 6640 nM
- IC50 (second compound 10 µM): 1730 nM
- viability, T/C [1]: 119%
- viability, T/C [2]: 115%
- viability, T/C [3]: 138%
- viability, T/C [4]: 93.6%
- viability, T/C [5]: 63.7%
- viability, T/C [6]: 39.8%
- viability, T/C [7]: 131%
- viability, T/C [8]: 129%
- viability, T/C [9]: 125%
- viability, T/C [10]: 101%
- viability, T/C [11]: 66.5%
- viability, T/C [12]: 42%
- viability, T/C [13]: 146%
- viability, T/C [14]: 132%
- viability, T/C [15]: 137%
- viability, T/C [16]: 108%
- viability, T/C [17]: 73.6%
- viability, T/C [18]: 51.4%
- viability, T/C [19]: 135%
- viability, T/C [20]: 143%
- viability, T/C [21]: 147%
- viability, T/C [22]: 106%
- viability, T/C [23]: 61.3%
- viability, T/C [24]: 43.5%
- viability, T/C [25]: 151%
- viability, T/C [26]: 112%
- viability, T/C [27]: 108%
- viability, T/C [28]: 69.2%
- viability, T/C [29]: 25.2%
- viability, T/C [30]: 5.33%
